Values of other authors in patent publication US6593300B1, “(3R)-3-amino-4-carboxybutyraldehyde derivatives inhibiting the release of interleukin-1/beta” (Gyogyszerkutato Intezet Kft., priority 1997, dated 2003).

Legend:
[1] = molecular target: T1, ICE (IL-1β converting enzyme) (Homo sapiens, UniProt P29466); settings: literature reports
T1 sequence (P29466 120-297): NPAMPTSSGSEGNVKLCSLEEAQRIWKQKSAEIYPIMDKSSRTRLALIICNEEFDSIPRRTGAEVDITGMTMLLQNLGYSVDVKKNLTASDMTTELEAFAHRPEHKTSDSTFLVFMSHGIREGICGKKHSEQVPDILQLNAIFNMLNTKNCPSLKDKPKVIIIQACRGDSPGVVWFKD
T1 sequence (P29466 317-404): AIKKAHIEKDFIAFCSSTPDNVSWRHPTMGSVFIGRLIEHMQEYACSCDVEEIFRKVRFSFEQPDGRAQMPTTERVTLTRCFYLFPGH

ICE = molecular target: T2, ICE (Mus musculus, UniProt P29452); settings: "tissue chamber" model, LPS induced fever or septic shock models
T2 construct: in the mouse, in the “tissue chamber” model as well as in lipopolysaccharide (LPS) induced fever or septic shock models; host or cells: mouse (whole animal, endogenous enzyme)
T2 sequence (P29452 119-296 limits assumed): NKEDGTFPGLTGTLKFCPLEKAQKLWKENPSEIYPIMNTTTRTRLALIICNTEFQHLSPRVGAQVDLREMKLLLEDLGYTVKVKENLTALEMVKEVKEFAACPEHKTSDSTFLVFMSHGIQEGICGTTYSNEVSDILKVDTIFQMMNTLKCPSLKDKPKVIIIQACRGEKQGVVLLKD
T2 sequence (P29452 315-402 limits assumed): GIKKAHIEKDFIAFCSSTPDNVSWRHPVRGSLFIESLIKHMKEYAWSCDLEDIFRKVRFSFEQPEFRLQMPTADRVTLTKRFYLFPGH

| in vivo efficacy (ICE) | Molecule | ICE inhibiting effect [1] |
| --- | --- | --- |
| – | O=c1oc(Cl)c(Cl)c2ccccc12 [3,4-dichloro-isocoumarine] | inhibited |
| – | O=C(O)C[C@H](NC(=O)OCc1ccccc1)C(=O)COC(=O)c1c(Cl)cccc1Cl [Z-Asp-CH2DCB, Z-NH—CH(CH2COOH)—CO—CH2DCB] | significant ICE inhibiting effect |
| – | CC(C)C[C@H](NC(=O)[C@H]1O[C@@H]1C(=O)O)C(=O)NCCCCN=C(N)N [Example E64] | not inhibited |
| – | O=C(O)CC(CC(=O)COC(=O)c1c(Cl)cccc1Cl)NC(=O)OCc1ccccc1 (centres unmarked) [Z-AhAsp-CH2DCB, Z-NH—CH(CH2COOH)—CH2—CO—CH2DCB] | ineffective |
| confirmed | Ac-Tyr-Val-Ala-Asp-H: first reversible inhibitor of ICE, tetrapeptide aldehyde | – |
